Assay results published in PubChem BioAssay AID652212 (Johns Hopkins Ion Channel Center, 2013).
Calls of active or inactive are those of the source.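 The calls were made as follows: active = peak inhibition of the TASK1 potassium channel above a set limit at some dose, plus a fitted dose response; inactive = no inhibition at any dose, or no fitted curve.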

Target: Potassium channel subfamily K member 3 (Homo sapiens) (UniProt O14649)
Assay: TASK1 (KCNK3) potassium channel inhibitors, SAR follow-up, CHO cells, FluxOR thallium flux (AID 652212)
Conditions: FluxOR thallium flux fluorescence; for normalized flux ratio, lower = inhibition: at 3 µM (top of the series)

Potassium channel subfamily K member 3 (Homo sapiens), sequence (O14649 whole entry, looked up): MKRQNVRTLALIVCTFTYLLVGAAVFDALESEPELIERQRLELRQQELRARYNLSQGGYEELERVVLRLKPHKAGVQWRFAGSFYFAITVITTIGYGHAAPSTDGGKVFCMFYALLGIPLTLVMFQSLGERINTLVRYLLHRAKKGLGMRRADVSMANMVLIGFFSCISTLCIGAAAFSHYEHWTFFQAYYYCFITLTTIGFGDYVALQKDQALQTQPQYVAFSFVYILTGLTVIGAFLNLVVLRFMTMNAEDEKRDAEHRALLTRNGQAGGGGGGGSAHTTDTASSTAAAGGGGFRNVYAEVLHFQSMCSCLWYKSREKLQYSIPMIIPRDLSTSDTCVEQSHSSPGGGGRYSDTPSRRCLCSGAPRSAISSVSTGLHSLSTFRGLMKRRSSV

SMILES | IC50 [nM] | normalized flux ratio, lower = inhibition
CN(C)c1ccc(C(=O)Nc2cccc(NC(=O)c3ccccc3)c2)cc1 | 259 | 
O=C(Nc1cccc(NC(=O)c2cccnc2)c1)c1ccccc1 | 1290 | 
O=C(Nc1cccc(NC(=O)c2ccc(Cl)cc2)c1)c1ccccc1 |  | inactive
O=C(Nc1cccc(NC(=O)c2ccncc2)c1)c1ccccc1 | 249 | 
Cc1cccc(C(=O)Nc2cccc(NC(=O)c3ccc(Cl)cc3)c2)c1 | 149 | 
O=C(Nc1cccc(NC(=O)c2ccoc2)c1)c1ccccc1 | 799 | 
Cc1cccc(C(=O)Nc2cccc(NC(=O)c3ccco3)c2)c1 | 143 | 
O=C(Nc1cccc(NC(=O)c2ccsc2)c1)c1ccccc1 | 162 | 
COc1cccc(C(=O)Nc2cccc(NC(=O)c3cccc(C)c3)c2)c1 | 31 | 
Cc1cccc(C(=O)Nc2cccc(NC(=O)c3ccccc3C(C)C)c2)c1 | 328 | 
O=C(Nc1cccc(NC(=O)c2ccc(C(F)(F)F)cc2)c1)c1ccccc1 |  | inactive
CC(C)(C)c1ccc(C(=O)Nc2cccc(NC(=O)c3ccccc3)c2)cc1 |  | inactive
COc1ccc(C(=O)Nc2cccc(NC(=O)c3cccc(C)c3)c2)cc1 | 1330 | 
Cc1cccc(C(=O)Nc2cccc(NC(=O)c3cccc(C)c3)c2)c1 | 30 | 
Cc1cccc(C(=O)Nc2cccc(NC(=O)c3cccc(Cl)c3)c2)c1 | 3 | 
O=C(Nc1cccc(NC(=O)c2ccccc2Cl)c1)c1ccccc1 | 497 | 
Cc1cccc(C(=O)Nc2cccc(NC(=O)c3ccccc3Cl)c2)c1 | 23 | 
Cc1cccc(C(=O)Nc2cccc(NC(=O)c3ccccc3C)c2)c1 | 91 | 
O=C(Nc1cccc(NC(=O)c2cccc(Cl)c2)c1)c1ccccc1 | 52 | 
O=C(Nc1cccc(NC(=O)c2cccs2)c1)c1ccccc1 | 29 | 
Cc1cccc(C(=O)Nc2cccc(NC(=O)c3cccc(F)c3)c2)c1 | 25 | 
Cc1cccc(C(=O)Nc2cccc(NC(=O)c3ccc(N(C)C)cc3)c2)c1 | 145 | 
O=C(Nc1cccc(NC(=O)c2ccc(F)cc2)c1)c1ccccc1 | 306 | 
COc1cccc(C(=O)Nc2cccc(NC(=O)c3ccccc3)c2)c1 | 327 | 
O=C(Nc1cccc(NC(=O)C2CCCCC2)c1)c1ccccc1 | 79 | 
O=C(Nc1cccc(NC(=O)c2cccc(C(F)(F)F)c2)c1)c1ccccc1 | 157 | 
O=C(Nc1cccc(NC(=O)c2ccccn2)c1)c1ccccc1 | 86 | 
Cc1ccc(C(=O)Nc2cccc(NC(=O)c3ccccc3)c2)cc1 |  | inactive

Other lines, results leading:

IC50 [nM] | normalized flux ratio, lower = inhibition | SMILES
11 |  | CC(C)c1ccccc1C(=O)Nc1cccc(NC(=O)c2ccccc2OC(F)(F)F)c1
2 |  | CCOc1ccccc1C(=O)Nc1cccc(NC(=O)c2ccccc2C(F)(F)F)c1
4 |  | COc1ccccc1C(=O)Nc1cccc(NC(=O)c2cccc(C)c2)c1
4 |  | COc1ccccc1C(=O)Nc1cccc(NC(=O)c2ccccc2OC(F)(F)F)c1
104 |  | Cc1ccccc1C(=O)Nc1cccc(NC(=O)c2ccccc2)c1
2 |  | CCOc1ccccc1C(=O)Nc1cccc(NC(=O)c2ccccc2OC)c1
10 |  | COc1ccccc1C(=O)Nc1cccc(NC(=O)c2ccccc2OC)c1
222 |  | COc1ccccc1C(=O)Nc1cccc(NC(=O)c2ccccc2)c1
130 |  | O=C(Nc1cccc(NC(=O)c2ccccc2C(F)(F)F)c1)c1ccccc1
1 |  | CC(C)Oc1ccccc1C(=O)Nc1cccc(NC(=O)c2ccccc2OC(F)(F)F)c1
73 |  | COc1ccccc1C(=O)Nc1cccc(NC(=O)c2ccccc2C)c1
7 |  | COc1ccccc1C(=O)Nc1cccc(NC(=O)c2ccccc2C(C)C)c1
